US6794371B1, “Aminoalkylenephosphonates for treatment of bone disorders” (The Dow Chemical Company, priority 1999, dated 2004)

System: ovariectomized rats (bone mineral density)
Experiment: Ovariectomized rat osteoporosis model, bone mineral density by dual energy X-ray absorptiometry (DEXA) (Example 2)
Conditions: 5 mg/kg
Experimental: Eleven week old Female Sprague-Dawley laboratory rats (75) were fed a commercial rat diet and were allowed to drink water ad libitum. They were housed in pairs in an air-conditioned environment, and were allowed to enjoy 14 hours of illumination per day. Ten rats were sham-operated and were used as “non-osteopenic” control rats. All of the other rats were ovariectomized at 12 weeks of age. All surgeries were done under injectable anesthesia. […] The remaining rats were given various phosphonate compounds in groups of ten.
The rats were given doses three times during the first week and once a week thereafter.
All other compounds were dosed at 5 mg/kg. In this study, bone mineral density was determined by dual energy X-ray absorptiometry (DEXA).

Row | Structure (SMILES) | bone mineral density (BMD) over the study period, relative to OVX control group
1 | O=P(O)(O)CN(Cc1ccccn1)CP(=O)(O)O [AMPDMP, N,N-bis(methylenephosphonic acid)-2-(aminomethyl)pyridine] | look even better
2 | O=P(O)(O)CN1Cc2cccc(n2)CN(CP(=O)(O)O)Cc2cccc(n2)C1 [BP2MP, N,N′-bis(methylenephosphonic acid)-2,11-diaza[3.3](2,6)pyridinophane] | look even better
